According to patent publication US20250032623A1, “HETEROBIFUNCTIONAL COMPOUNDS AND THEIR USE IN TREATING DISEASE” (HALDA THERAPEUTICS OPCO, INC., priority 2021, published 2025):

What was measured:
HEK293 cells = assay: Cellular growth inhibition assay (CellTiter-Glo), HEK293 cells; assay type: cell-based; details: Homo sapiens, 72 h, three days compound treatment, CellTiter-Glo 2.0, read-out: CTG HEK293 GI50
Method in brief: (§1)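 HEK293 or HeLa cells seeded at 500 cells/well in DMEM with 10% FBS, treated after 24 h with titrated compound for three days at 37 °C, 5% CO2. CellTiter-Glo 2.0 luminescence read on Day 0 and Day 3, normalized to DMSO, four-parameter fit giving GI50.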

KRAS G12C = molecular target: T1, KRAS G12C (Homo sapiens, UniProt P01116, G12C); assay: KRAS G12C nucleotide exchange assay (SOS1 mediated, HTRF); assay type: biochemical; details: 1 hr pre-incubation at RT, read-out: IC50 (inhibition of KRas G12C)
T1 construct: Kras (aa 2-169), GST; purchased Reaction Biology Corporation (RBC)
T1 sequence (P01116 2-169 isoform P01116-2 G12C): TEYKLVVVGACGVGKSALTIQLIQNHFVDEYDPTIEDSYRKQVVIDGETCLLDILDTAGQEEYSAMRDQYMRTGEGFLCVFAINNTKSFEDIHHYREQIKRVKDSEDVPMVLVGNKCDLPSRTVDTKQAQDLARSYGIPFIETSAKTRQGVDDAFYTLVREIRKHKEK
Method in brief: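 HTRF nucleotide exchange using KRAS G12C mixed with anti-GST Tb antibody and pre-incubated with compound for 1 h at RT. Exchange was started with SOS1 plus labelled GTP. Compounds ran as 10-point, 3-fold dilutions from 10 μM, with no-SOS1 or top concentration as blank and IC50 from a variable-slope sigmoidal fit.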

HeLa cells = assay: Cellular growth inhibition assay (CellTiter-Glo), HeLa cells; assay type: cell-based; details: Homo sapiens, 72 h, three days compound treatment, CellTiter-Glo 2.0, read-out: CTG HELA GI50
Method in brief: as §1

[1] = molecular target: T2, full-length CDK9 (amino acids 1-372; Accession Number NP_001252.1) (Homo sapiens, UniProt P50750); assay: KdELECT binding assay, CDK9
T2 construct: full-length CDK9 (amino acids 1-372); purchased; host or cells: bacteria (E. coli, BL21-derived, T7 phage)
T2 sequence (P50750 whole entry, the tested form may be a part): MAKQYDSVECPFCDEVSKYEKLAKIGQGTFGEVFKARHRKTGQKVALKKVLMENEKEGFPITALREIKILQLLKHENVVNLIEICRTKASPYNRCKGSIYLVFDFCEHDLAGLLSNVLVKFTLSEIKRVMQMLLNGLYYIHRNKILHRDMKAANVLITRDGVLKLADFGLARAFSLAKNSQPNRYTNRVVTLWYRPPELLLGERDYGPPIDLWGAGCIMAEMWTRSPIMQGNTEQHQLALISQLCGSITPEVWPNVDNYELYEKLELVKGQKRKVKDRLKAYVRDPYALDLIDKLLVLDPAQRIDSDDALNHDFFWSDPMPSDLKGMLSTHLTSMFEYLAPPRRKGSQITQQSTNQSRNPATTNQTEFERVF
Description: Exemplary compounds were tested for ability to bind to full-length CDK9 (amino acids 1-372; Accession Number NP_001252.1) expressed from bacteria. Compounds were tested using a KdELECT assay.
Kinase-tagged T7 phage strains were prepared in an E. coli host derived from the BL21 strain. E. coli were grown to log-phase and infected with T7 phage and incubated with shaking at 32° C. until lysis. The lysates were centrifuged and filtered to remove cell debris. The remaining kinases were produced in HEK-293 cells and subsequently tagged with DNA for qPCR detection. Streptavidin-coated magnetic beads were treated with biotinylated small molecule ligands for 30 minutes at room temperature to generate affinity resins for kinase assays. The liganded beads were blocked with excess biotin and washed with blocking buffer (SeaBlock (Pierce), 1% BSA, 0.05% Tween 20, 1 mM DTT) to remove unbound ligand and to reduce non-specific binding. Binding reactions were assembled by combining kinases, liganded affinity beads, and test compounds in 1× binding buffer (20% SeaBlock, 0.17×PBS, 0.05% Tween 20, 6 mM DTT). Test compounds were prepared as 111× stocks in 100% DMSO. Kd values were determined using an 11-point 3-fold compound dilution series with three DMSO control points. All compounds for Kd measurements are distributed by acoustic transfer (non-contact dispensing) in 100% DMSO. The compounds were then diluted directly into the assays such that the final concentration of DMSO was 0.9%. All reactions performed in polypropylene 384-well plate. Each was a final volume of 0.02 mL. The assay plates were incubated at room temperature with shaking for 1 hour and the affinity beads were washed with wash buffer (1×PBS, 0.05% Tween 20). The beads were then re-suspended in elution buffer (1×PBS, 0.05% Tween 20, 0.5 μM nonbiotinylated affinity ligand) and incubated at room temperature with shaking for 30 minutes. The kinase concentration in the eluates was measured by qPCR.

SMILES: CCc1cnn2c(NCc3ccc(OCCOCCOCCOC4CCN(C/C=C/C(=O)N5CCN(c6nc(OC[C@@H]7CCCN7C)nc7c6CCN(c6cccc8cccc(Cl)c68)C7)C[C@@H]5CC#N)CC4)nc3)cc(N3CCCC[C@H]3CCO)nc12 [Compound I-90, 2-((S)-4-(7-(8-chloronaphthalen-1-yl)-2-(((S)-1-methylpyrrolidin-2-yl)methoxy)-5,6,7,8-tetrahydropyrido [3,4-d]pyrimidin-4-yl)-1-((E)-4-(4-(2-(2-(2-((5-(((3-ethyl-5-((S)-2-(2-hydroxyethyl)piperidin-1-yl)pyrazolo[1,5-a]pyrimidin-7-yl)amino)methyl)pyridin-2-yl)oxy)ethoxy)ethoxy)ethoxy)piperidin-1-yl)but-2-enoyl)piperazin-2-yl)acetonitrile]
- GI50 (HEK293 cells): < 500 nM
- IC50 (KRAS G12C): < 100 nM
- GI50 (HeLa cells): < 500 nM
- Kd [1]: < 50 nM
